≈ marks a conversion by molar mass, not a printed value. Where “and” joins values, the source holds several entries; their conditions need not be identical. Equal values may be shown once. Read-outs that look alike come from different tables or passages of the source.
Tests used:
[1] = tested on: A. fumigatus AF293; experiment: EUCAST broth microdilution growth inhibition (OD 530 nm, 384-well); type: cell-based; details: Aspergillus fumigatus, strain AF293 (ITC-susceptible), 48 h
Procedure: (§1) The antifungal activities of the test compounds against A. fumigatus strains (itraconazole [ITC]-susceptible strains NCPF2010, AF294, and AF293; ITC-resistant strains AF72 and AF91) were calculated from growth curves generated by spectrophotometric analysis and compared to the activities against positive and negative controls.

[2] = tested on: A. fumigatus AF294; experiment: as above; type: cell-based; details: Aspergillus fumigatus, strain AF294 (ITC-susceptible), 48 h
Procedure: as §1

[3] = tested on: A. fumigatus AF72; experiment: as above; type: cell-based; details: Aspergillus fumigatus, strain AF72 (ITC-resistant), 48 h
Procedure: as §1

[4] = tested on: A. fumigatus AF91; experiment: as above; type: cell-based; details: Aspergillus fumigatus, strain AF91 (ITC-resistant), 48 h
Procedure: as §1

[5] = tested on: A. fumigatus NCPF2010; experiment: as above; type: cell-based; details: Aspergillus fumigatus, strain NCPF2010 (ITC-susceptible), 48 h, range tested 0.002 to 1 μg/ml
Procedure: as §1

[6] = tested on: 96 clinically isolated A. fumigatus strains; experiment: EUCAST MIC against clinical isolates (visual); type: cell-based, Aspergillus fumigatus; details: 96 clinical isolates; for MIC Range / MIC50 / MIC90 / MIC: visual; for MIC50 / MIC90 / MIC: Aspergillus fumigatus
Text: The antifungal activity of PC1244 was further evaluated against 96 clinical isolates (obtained from Saint Louis Hospital, Paris, France [50 isolates], and the North West England Mycology Reference Centre, Manchester, UK [46 isolates]). […] .

[7] = tested on: BEAS2B cells infected with A. fumigatus; experiment: Persistence of action in bronchial epithelial cells (galactomannan in supernatant); type: cell-based, Aspergillus fumigatus; details: Aspergillus fumigatus, BEAS-2B, GM readout
Procedure: In a second system, the persistence of the action of the same three agents on A. fumigatus-infected bronchial epithelial cells was quantified using galactomannan (GM) production in the culture supernatant as an index of fungal growth. BEAS2B cells were infected with A. fumigatus, and the effects of a 24-h washout period (medium change) prior to infection were examined.
The persistence of action of the test agents was evaluated in immortalized bronchial epithelial cells (BEAS2B cells) as previously reported ([28]). […] The plate was incubated for exactly 1 h at 37°C in 5% CO2. After the incubation time had elapsed, all wells on the washout plate were aspirated and growth medium (100 μl/well) was added across the plate. […] The plate was incubated for exactly 1 h at 37°C in 5% CO2, after which A. fumigatus conidia were added across both plates at a final concentration of 1 × 10^3/well. […] This study was conducted in triplicate in three independent experiments.

[8] = tested on: Aspergillus carbonarius (ATCC 8740); experiment: CLSI MIC; type: cell-based; details: ATCC8740, CLSI, 1 strain, read-out: MIC
[9] = tested on: Aspergillus flavus (ATCC 204304); experiment: CLSI MIC; type: cell-based; details: ATCC204304, CLSI, 1 strain, read-out: MIC
[10] = tested on: Aspergillus flavus (AFL8, NRRC3357); experiment: EUCAST MIC; type: cell-based; details: EUCAST, 2 strains, mean MIC, read-out: MIC
[11] = tested on: Aspergillus niger (ATCC 1015); experiment: EUCAST MIC; type: cell-based; details: ATCC1015, EUCAST, 1 strain, read-out: MIC
[12] = tested on: Aspergillus terreus (AT49, AT7130); experiment: EUCAST MIC; type: cell-based; details: EUCAST, 2 strains, mean MIC, read-out: MIC
[13] = tested on: Penicillium chrysogenum (ATCC 9480); experiment: CLSI MIC; type: cell-based; details: ATCC9480, 1 strain
[14] = tested on: Penicillium citrinum (ATCC 9849); experiment: CLSI MIC; type: cell-based; details: ATCC9849, 1 strain
[15] = tested on: Trichophyton rubrum (ATCC 10218); experiment: CLSI MIC; type: cell-based; details: ATCC10218, 1 strain
[16] = tested on: Cladosporium argillaceum (ATCC 38013); experiment: CLSI MIC; type: cell-based; details: Rhizocladosporium argillaceum, ATCC38013, 1 strain
[17] = tested on: Candida albicans (20240.047, ATCC 10231); experiment: CLSI MIC; type: cell-based; details: ATCC10231, CLSI, 2 strains, mean MIC, MIC = 50% inhibition of fungal growth, read-out: MIC
[18] = tested on: Chaetomium globosum (ATCC 44699); experiment: CLSI MIC; type: cell-based; details: ATCC44699, 1 strain
[19] = tested on: Mucor circinelloides (ATCC 8542); experiment: CLSI MIC; type: cell-based; details: ATCC8542, 1 strain
[20] = tested on: Rhizopus oryzae(ATCC 11145); experiment: CLSI MIC; type: cell-based; details: Rhizopus arrhizus, ATCC11145, 1 strain
[21] = tested on: ergosterol production in A. fumigatus (NCPF2010); experiment: A. fumigatus cell-based ergosterol assay; details: for IC50: Aspergillus fumigatus
Procedure: CYP51 enzyme-inhibitory activity was also measured in a cell-based assay, as described previously ([28]). In this plate-based ergosterol quantification experiment, oxidation of ergosterol by cholesterol oxidase was determined by observing the conversion of the weakly fluorescent resazurin to the highly fluorescent resorufin and was normalized using crystal violet staining (indicating cell number).
After incubation for 24 h at 35°C, the medium was removed from all wells and replaced with reaction buffer (catalog number A12216; Amplex red cholesterol assay kit; Thermo Fisher) and Amplex red solution. The plates were incubated for 30 min at 37°C with protection from light, after which the fluorescence was quantified using a spectrophotometer. The medium was removed from all wells and replaced with crystal violet solution (1%, vol/vol), and the plates were incubated at room temperature on a shaker for 30 min. The plates were washed three times with phosphate-buffered saline (PBS), and sodium dodecyl sulfate solution (0.1%, vol/vol) was added across the plate to lyse the cells. After incubation at room temperature for 1 h, the absorbance (OD) at 590 nm was measured using a spectrophotometer.

[22] = tested on: A. fumigatus (NCPF2010); experiment: Fungicidal activity by subculture on agar (CFU-MFC); details: for MFC: Aspergillus fumigatus, NCPF2010, 48 h, read-out: CFU-MFC; for CFU-MFC/MIC ratio: NCPF2010
Procedure: (§2) After the MIC for each compound was recorded, fungicidal activity was determined as previously described ([35]). Briefly, medium from each well (100 μl/well) was removed after pipetting up and down five times and subcultured onto 4% Sabouraud dextrose agar plates. The plates were incubated (35°C with ambient air) for 48 h, and the numbers of CFU were counted for each compound concentration. The minimum fungicidal concentration (MFC) was determined as the lowest compound concentration yielding 3 colonies or less.

[23] = tested on: A. fumigatus (NCPF2010); experiment: Fungicidal activity by XTT colorimetric method (XTT-MFC); details: for MFC: NCPF2010, read-out: XTT-MFC; for XTT-MFC/MIC ratio / XTT-MFC: NCPF2010; for XTT-MFC: cutoff 99% inhibition
Procedure: In addition, the fungicidal effect of each compound was determined using 2,3-bis-(2-methoxy-4-nitro-5-sulfophenyl)-2H-tetrazolium-5-carboxanilide salt (XTT)-based quantitative colorimetric analysis (XTT-MFC).
After the removal of medium for culture-based testing of the number of CFU, the contents of all wells were carefully aspirated and warm PBS (200 μl/well) was added. After gentle agitation, the contents of all wells were aspirated and fresh medium was added (200 μl/well). The plates were incubated (35°C with ambient air) for 24 h. […] The plates were incubated (35°C with ambient air) for 2 h, after which the plates were agitated gently for 2 min. The optical density (OD) of each well at 450 nm and 620 nm was measured using a multiscanner (Clariostar; BMG, Buckinghamshire, UK).

[24] = tested on: A. fumigatus (NCPF2010); experiment: Broth microdilution MIC (96-well) preceding MFC determination; details: Aspergillus fumigatus
Procedure: as §2

[25] = 1 h contact before infection, no washout, read-out: BEAS2B cells IC50 No washout
[26] = 1 h contact then 24-h washout before infection, read-out: BEAS2B cells IC50 Washout
[27] = NCPF2010, 24 h, read-out: IC50, inhibition of ergosterol production
[28] = Aspergillus fumigatus, NCPF2010, read-out: maximum inhibition of fungicidal activity

Cc1cc(N2CCN(c3ccc(C(=O)N[C@H]4CCCC[C@@H]4O)cc3)CC2)ccc1OC[C@@H]1CO[C@@](Cn2cncn2)(c2ccc(F)cc2F)C1 [PC1244, 4-(4-(4-(((3R,5R)-5-((1H-1,2,4-triazol-1-yl)methyl)-5-(2,4-difluorophenyl)tetrahydrofuran-3-yl)methoxy)-3-methylphenyl)piperazin-1-yl)-N-((1S,2S)-2-hydroxycyclohexyl)benzamide]
IC50 [1]: 0.0026 µg/mL (≈ 0.00379 µM)
IC90 [1]: 0.012 µg/mL (≈ 0.0175 µM)
IC50 [2]: 0.0021 µg/mL (≈ 0.00306 µM)
IC90 [2]: 0.0041 µg/mL (≈ 0.00597 µM)
IC50 [3]: 0.0024 µg/mL (≈ 0.00349 µM)
IC90 [3]: 0.026 µg/mL (≈ 0.0379 µM)
IC50 [4]: 0.0037 µg/mL (≈ 0.00539 µM)
IC90 [4]: 0.024 µg/mL (≈ 0.0349 µM)
IC50 [5]: 0.0017 µg/mL (≈ 0.00248 µM)
IC90 [5]: 0.0022 µg/mL (≈ 0.0032 µM)
fold more potent than VRC on the basis of geometric mean MICs [6]: 6.2 fold
MIC Range [6]: 0.008 to 2 µg/mL
MIC50 [6]: 0.032 µg/mL (≈ 0.0466 µM)
MIC90 [6]: 0.5 µg/mL (≈ 0.728 µM)
MIC ([6]; read-out: MIC Geometric mean): 0.067 µg/mL (≈ 0.0976 µM)
MIC ([6]; read-out: MIC Mode): 0.016 µg/mL (≈ 0.0233 µM)
IC50 [7, 25]: 0.0034 µg/mL (≈ 0.00495 µM)
IC50 [7, 26]: 0.018 µg/mL (≈ 0.0262 µM)
MIC [8]: 0.063 µg/mL (≈ 0.0917 µM)
MIC [9]: 0.25 µg/mL (≈ 0.364 µM)
MIC [10]: 0.38 µg/mL (≈ 0.553 µM)
MIC [11]: 0.5 µg/mL (≈ 0.728 µM)
MIC [12]: 0.38 µg/mL (≈ 0.553 µM)
MIC [13]: 0.13 µg/mL (≈ 0.189 µM)
MIC [14]: 0.5 µg/mL (≈ 0.728 µM)
MIC [15]: 0.031 µg/mL (≈ 0.0451 µM)
MIC [16]: 0.25 µg/mL (≈ 0.364 µM)
MIC [17]: < 0.0078 µg/mL
MIC [18]: 0.063 µg/mL (≈ 0.0917 µM)
MIC [19]: 2 µg/mL (≈ 2.91 µM)
MIC [20]: 0.25 µg/mL (≈ 0.364 µM)
fold more potent than POS at inhibiting ergosterol production [21]: 2.2 fold
fold more potent than VRC at inhibiting ergosterol production [21]: 12 fold
IC50 [21, 27]: 0.0055 µg/mL
IC50 ([21]; NCPF2010, read-out: 50% inhibitory concentration, ergosterol synthesis): 8 nM
fold stronger than POS (CFU-MFC) [22]: 2 fold
fold stronger than VRC (CFU-MFC) [22]: 8 fold
MFC [22]: 2 µg/mL (≈ 2.91 µM)
CFU-MFC/MIC ratio [22]: 32
fold more potent than POS (XTT-MFC) [23]: 3 fold
fold more potent than VRC (XTT-MFC) [23]: > 229 fold
MFC ([23]; Aspergillus fumigatus): 0.14 µg/mL (≈ 0.204 µM)
inhibition at 1 µg/mL [23, 28]: 99.9%
XTT-MFC/MIC ratio [23]: 2.2
XTT-MFC [23]: 0.14 ± 0.0058 µg/mL
MIC [24]: 0.063 µg/mL (≈ 0.0917 µM)

CC[C@@H]([C@H](C)O)n1ncn(-c2ccc(N3CCN(c4ccc(OC[C@@H]5CO[C@@](Cn6cncn6)(c6ccc(F)cc6F)C5)cc4)CC3)cc2)c1=O [Posaconazole, posaconazole]
IC50 [1]: 0.01 µg/mL (≈ 0.0143 µM)
IC90 [1]: 0.028 µg/mL (≈ 0.04 µM)
IC50 [2]: 0.0056 µg/mL (≈ 0.00799 µM)
IC90 [2]: 0.011 µg/mL (≈ 0.0157 µM)
IC50 [3]: 0.042 µg/mL (≈ 0.0599 µM)
IC90 [3]: 0.3 µg/mL (≈ 0.428 µM)
IC50 [4]: 0.038 µg/mL (≈ 0.0542 µM)
IC90 [4]: 0.049 µg/mL (≈ 0.0699 µM)
IC50 [5]: 0.007 µg/mL (≈ 0.00999 µM)
IC90 [5]: 0.0084 µg/mL (≈ 0.012 µM)
MIC Range [6]: 0.016 to 2 µg/mL
MIC50 [6]: 0.063 µg/mL (≈ 0.0899 µM)
MIC90 [6]: 0.5 µg/mL (≈ 0.713 µM)
MIC ([6]; read-out: MIC Geometric mean): 0.1 µg/mL (≈ 0.143 µM)
MIC ([6]; read-out: MIC Mode): 0.032 µg/mL (≈ 0.0457 µM)
IC50 [7, 25]: 0.0031 µg/mL (≈ 0.00442 µM)
IC50 [7, 26]: 0.046 µg/mL (≈ 0.0656 µM)
MIC [8]: 0.063 µg/mL (≈ 0.0899 µM)
MIC [9]: 0.13 µg/mL (≈ 0.186 µM)
MIC [10]: 0.16 µg/mL (≈ 0.228 µM)
MIC [11]: 0.2 µg/mL (≈ 0.285 µM)
MIC [12]: 0.093 µg/mL (≈ 0.133 µM)
MIC [13]: 0.13 µg/mL (≈ 0.186 µM)
MIC [14]: 0.5 µg/mL (≈ 0.713 µM)
MIC [15]: 0.031 µg/mL (≈ 0.0442 µM)
MIC [16]: 0.25 µg/mL (≈ 0.357 µM)
MIC [17]: 0.081 µg/mL (≈ 0.116 µM)
MIC [18]: 0.25 µg/mL (≈ 0.357 µM)
MIC [19]: > 8 µg/mL
MIC [20]: > 8 µg/mL
IC50 [21, 27]: 0.012 µg/mL and 17 nM
MFC [22]: 4 µg/mL (≈ 5.71 µM)
CFU-MFC/MIC ratio [22]: 32
MFC ([23]; Aspergillus fumigatus): 0.42 µg/mL (≈ 0.599 µM)
inhibition at 2 µg/mL [23, 28]: 100%
XTT-MFC/MIC ratio [23]: 3.4
XTT-MFC [23]: 0.42 ± 0.020 µg/mL
MIC [24]: 0.125 µg/mL (≈ 0.178 µM)

From PMC5923123, “In Vitro and In Vivo Efficacy of a Novel and Long-Acting Fungicidal Azole, PC1244, on Aspergillus fumigatus Infection” (Antimicrobial Agents and Chemotherapy, 2018)
